ChEMBL document CHEMBL1641439, “The effect of 5-substitution on the electrochemical behavior and antitubercular activity of PA-824” (2011)
≈ marks a conversion by molar mass, not a printed value.

How the values were obtained:
[1] = system: Mycobacterium tuberculosis; test: Antituberculosis activity against Mycobacterium tuberculosis H37Rv after 2 weeks; assay type: functional; settings: 336 h
[2] = system: Mycobacterium tuberculosis; test: Antituberculosis activity against Mycobacterium tuberculosis H37Rv assessed as minimum anaerobicidal cancentration after 3 weeks; assay type: functional

SMILES | MIC [1] [µM] | MAC [2] [µM]
Nc1c([N+](=O)[O-])nc2n1C[C@H](OCc1ccc(OC(F)(F)F)cc1)CO2 | > 100 | >100
O=[N+]([O-])c1nc2n(c1Br)C[C@H](OCc1ccc(OC(F)(F)F)cc1)CO2 | 25 (≈ 11 µg/mL) | 32.5
N#Cc1c([N+](=O)[O-])nc2n1C[C@H](OCc1ccc(OC(F)(F)F)cc1)CO2 | > 100 | –
O=[N+]([O-])c1nc2n(c1Cl)C[C@H](OCc1ccc(OC(F)(F)F)cc1)CO2 | 25 (≈ 9.84 µg/mL) | –
O=[N+]([O-])c1cn2c(n1)OC[C@@H](OCc1ccc(OC(F)(F)F)cc1)C2 [PRETOMANID] | 0.8 (≈ 0.287 µg/mL) | 8
